Measurements reported in the supplement of paper PMC11061612.

Columns and labels:
Carboplatin = compound: C1CC(C1)(C(=O)[O-])C(=O)[O-].N.N.[Pt+2] [Carboplatin]; conditions: max 10 µM
Outline: (§1)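 Cancer cell lines were seeded into 1536-well plates in 7.5 μl medium (DMEM/F12 or RPMI, 10% FBS), held 24 hours at 37°C and 5% CO2, and dosed for 72 hours with final DMSO typically 0.2%. Luminescence from CellTiter-Glo 2.0, scaled between blank-well and DMSO-well means, served as viability. The single-agent IC50 was obtained from dose-response fits with a non-linear mixed effects model, each fit being a two-parameter logistic curve.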

AZD5363 = compound: C1CN(CCC1(C(=O)N[C@@H](CCO)C2=CC=C(C=C2)Cl)N)C3=NC=NC4=C3C=CN4 [AZD5363]; conditions: max 10 µM
Outline: as §1

AZD1775 = compound: C=CCn1c(=O)c2cnc(Nc3ccc(N4CCN(C)CC4)cc3)nc2n1-c1cccc(C(C)(C)O)n1 [AZD1775]; conditions: max 3 µM
Outline: as §1

Trametinib = compound: CC(=O)Nc1cccc(-n2c(=O)n(C3CC3)c(=O)c3c(Nc4ccc(I)cc4F)n(C)c(=O)c(C)c32)c1 [Trametinib]; conditions: max 1 µM
Outline: as §1

Paclitaxel = compound: CC(=O)O[C@H]1C(=O)[C@@]2(C)[C@H]([C@H](OC(=O)c3ccccc3)[C@]3(O)C[C@H](OC(=O)[C@H](O)[C@@H](NC(=O)c4ccccc4)c4ccccc4)C(C)=C1C3(C)C)[C@]1(OC(C)=O)CO[C@@H]1C[C@@H]2O [Paclitaxel]; conditions: max 3 µM
Outline: as §1

Palbociclib = compound: CC(=O)c1c(C)c2cnc(Nc3ccc(N4CCNCC4)cn3)nc2n(C2CCCC2)c1=O [Palbociclib]; conditions: max 10 µM
Outline: as §1

AZD1390 = compound: CC(C)n1c(=O)n(C)c2cnc3cc(F)c(-c4ccc(OCCCN5CCCCC5)nc4)cc3c21 [AZD1390]; conditions: max 0.3 µM
Outline: as §1

Venetoclax = compound: CC1(C)CCC(CN2CCN(c3ccc(C(=O)NS(=O)(=O)c4ccc(NCC5CCOCC5)c([N+](=O)[O-])c4)c(Oc4cnc5[nH]ccc5c4)c3)CC2)=C(c2ccc(Cl)cc2)C1 [Venetoclax]; conditions: max 1 µM
Outline: as §1

Dasatinib = compound: CC1=C(C(=CC=C1)Cl)NC(=O)C2=CN=C(S2)NC3=CC(=NC(=N3)C)N4CCN(CC4)CCO [Dasatinib]; conditions: max 2 µM
Outline: as §1

SG3199 = compound: CC1=CN2[C@@H](C1)C=NC3=CC(=C(C=C3C2=O)OC)OCCCCCOC4=C(C=C5C(=C4)N=C[C@@H]6CC(=CN6C5=O)C)OC [SG3199]; conditions: max 0.001 µM
Outline: as §1

AZD2811 = compound: CCN(CCO)CCCOc1ccc2c(Nc3cc(CC(=O)Nc4cccc(F)c4)[nH]n3)ncnc2c1 [AZD2811]; conditions: max 1 µM
Outline: as §1

SN-38 = compound: CCc1c2c(nc3ccc(O)cc13)-c1cc3c(c(=O)n1C2)COC(=O)[C@]3(O)CC [SN-38]; conditions: max 0.3 µM
Outline: as §1

AZD0156 = compound: CN(C)CCCOc1ccc(-c2ccc3ncc4c(c3c2)n(C2CCOCC2)c(=O)n4C)cn1 [AZD0156]; conditions: max 3 µM
Outline: as §1

AZD4320 = compound: CN(CC[C@H](CSC1=CC=CC=C1)NC2=C(C=C(C=C2)S(=O)(=O)NC(=O)C3=CC=C(C=C3)N4CCC(CC4)[C@H](C5=CC=CC=C5C6=CC=C(C=C6)Cl)O)S(=O)(=O)C(F)(F)F)CCO [AZD4320]; conditions: max 1 µM
Outline: as §1

Alisertib = compound: COc1cc(Nc2ncc3c(n2)-c2ccc(Cl)cc2C(c2c(F)cccc2OC)=NC3)ccc1C(=O)O [Alisertib]; conditions: max 10 µM
Outline: as §1

Etoposide = compound: COc1cc([C@@H]2c3cc4c(cc3[C@@H](O[C@@H]3O[C@@H]5CO[C@@H](C)O[C@H]5[C@H](O)[C@H]3O)[C@H]3COC(=O)[C@H]23)OCO4)cc(OC)c1O [Etoposide]; conditions: max 10 µM
Outline: as §1

Gefitinib = compound: COc1cc2ncnc(Nc3ccc(F)c(Cl)c3)c2cc1OCCCN1CCOCC1 [Gefitinib]; conditions: max 10 µM
Outline: as §1

Prexasertib = compound: COc1cccc(OCCCN)c1-c1cc(Nc2cnc(C#N)cn2)n[nH]1 [Prexasertib]; conditions: max 1 µM
Outline: as §1

Doxorubicin = compound: COc1cccc2c1C(=O)c1c(O)c3c(c(O)c1C2=O)C[C@@](O)(C(=O)CO)C[C@@H]3O[C@H]1C[C@H](N)[C@H](O)[C@H](C)O1 [Doxorubicin]; conditions: max 1 µM
Outline: as §1

AZD5153 = compound: COc1nnc2ccc(N3CCC(c4ccc(OCCN5CCN(C)C(=O)[C@H]5C)cc4)CC3)nn12 [AZD5153]; conditions: max 1 µM
Outline: as §1

Lapatinib = compound: CS(=O)(=O)CCNCc1ccc(-c2ccc3ncnc(Nc4ccc(OCc5cccc(F)c5)c(Cl)c4)c3c2)o1 [Lapatinib]; conditions: max 10 µM
Outline: as §1

AZD8186 = compound: C[C@@H](Nc1cc(F)cc(F)c1)c1cc(C(=O)N(C)C)cc2c(=O)cc(N3CCOCC3)oc12 [AZD8186]; conditions: max 10 µM
Outline: as §1

Crizotinib = compound: C[C@@H](Oc1cc(-c2cnn(C3CCNCC3)c2)cnc1N)c1c(Cl)ccc(F)c1Cl [Crizotinib]; conditions: max 10 µM
Outline: as §1

Savolitinib = compound: C[C@@H](c1ccc2nccn2c1)n1nnc2ncc(-c3cnn(C)c3)nc21 [Savolitinib]; conditions: max 1 µM
Outline: as §1

AZD6738 = compound: C[C@@H]1COCCN1C2=NC(=NC(=C2)C3(CC3)[S@](=N)(=O)C)C4=C5C=CNC5=NC=C4 [AZD6738]; conditions: max 10 µM
Outline: as §1

AZD5991 = compound: Cc1c2c(nn1C)CSCc1cc(n(C)n1)CSc1cc(c3ccccc3c1)OCCCc1c(C(=O)O)n(C)c3c-2c(Cl)ccc13 [AZD5991]; conditions: max 1 µM
Outline: as §1

AZD7648 = compound: Cc1cc2ncnn2cc1Nc1ncc2c(n1)n(C1CCOCC1)c(=O)n2C [AZD7648]; conditions: max 10 µM
Outline: as §1

Taselisib = compound: Cc1nc(-c2cn3c(n2)-c2ccc(-c4cnn(C(C)(C)C(N)=O)c4)cc2OCC3)n(C(C)C)n1 [Taselisib]; conditions: max 10 µM
Outline: as §1

Selumetinib = compound: Cn1cnc2c(F)c(Nc3ccc(Br)cc3Cl)c(C(=O)NOCCO)cc21 [Selumetinib]; conditions: max 10 µM
Outline: as §1

SRA737 = compound: N#Cc1cnc(Nc2cc(NC[C@H]3CNCCO3)c(C(F)(F)F)cn2)cn1 [SRA737]; conditions: max 10 µM
Outline: as §1

MK-2206 = compound: NC1(c2ccc(-c3nc4ccn5c(=O)[nH]nc5c4cc3-c3ccccc3)cc2)CCC1 [MK-2206]; conditions: max 10 µM
Outline: as §1

Gemcitabine = compound: Nc1ccn([C@@H]2O[C@H](CO)[C@@H](O)C2(F)F)c(=O)n1 [Gemcitabine]; conditions: max 0.3 µM
Outline: as §1

[1] = compound: O=C(Nc1ccc2[nH]nc(-c3ccncc3)c2c1)[C@@H]1CCN(CC(=O)N2CCN(c3ccc(-c4ncccn4)cc3)CC2)C1; conditions: max 5 µM
Outline: as §1

Olaparib = compound: O=C(c1cc(Cc2n[nH]c(=O)c3ccccc23)ccc1F)N1CCN(C(=O)C2CC2)CC1 [Olaparib]; conditions: max 10 µM
Outline: as §1

5-Fluorouracil = compound: O=c1[nH]cc(F)c(=O)[nH]1 [5-Fluorouracil]; conditions: max 20 µM
Outline: as §1

| Cell Line | IC50, cell viability 72 h (Carboplatin) [µM] | IC50, cell viability 72 h (AZD5363) [µM] | IC50, cell viability 72 h (AZD1775) [nM] | IC50, cell viability 72 h (Trametinib) [nM] | IC50, cell viability 72 h (Paclitaxel) [nM] | IC50, cell viability 72 h (Palbociclib) [µM] | IC50, cell viability 72 h (AZD1390) [nM] | IC50, cell viability 72 h (Venetoclax) [nM] | IC50, cell viability 72 h (Dasatinib) [nM] | IC50, cell viability 72 h (SG3199) [nM] | IC50, cell viability 72 h (AZD2811) [nM] | IC50, cell viability 72 h (SN-38) [nM] | IC50, cell viability 72 h (AZD0156) [nM] | IC50, cell viability 72 h (AZD4320) [nM] | IC50, cell viability 72 h (Alisertib) [nM] | IC50, cell viability 72 h (Etoposide) [µM] | IC50, cell viability 72 h (Gefitinib) [µM] | IC50, cell viability 72 h (Prexasertib) [nM] | IC50, cell viability 72 h (Doxorubicin) [nM] | IC50, cell viability 72 h (AZD5153) [nM] | IC50, cell viability 72 h (Lapatinib) [µM] | IC50, cell viability 72 h (AZD8186) [µM] | IC50, cell viability 72 h (Crizotinib) [µM] | IC50, cell viability 72 h (Savolitinib) [nM] | IC50, cell viability 72 h (AZD6738) [µM] | IC50, cell viability 72 h (AZD5991) [nM] | IC50, cell viability 72 h (AZD7648) [µM] | IC50, cell viability 72 h (Taselisib) [µM] | IC50, cell viability 72 h (Selumetinib) [µM] | IC50, cell viability 72 h (SRA737) [µM] | IC50, cell viability 72 h (MK-2206) [µM] | IC50, cell viability 72 h (Gemcitabine) [nM] | IC50, cell viability 72 h [1] [µM] | IC50, cell viability 72 h (Olaparib) [µM] | IC50, cell viability 72 h (5-Fluorouracil) [µM] |
| --- | --- | --- | --- | --- | --- | --- | --- | --- | --- | --- | --- | --- | --- | --- | --- | --- | --- | --- | --- | --- | --- | --- | --- | --- | --- | --- | --- | --- | --- | --- | --- | --- | --- | --- | --- |
| HLE (Hepatocellular Carcinoma) | > 10 | > 10 | 625 | > 1000 | 60.3 | > 10 | > 300 | > 1000 | > 2000 | > 1 | > 1000 | 14.3 | > 3000 | > 1000 | 2230 | > 10 | > 10 | 107 | 426 | > 1000 | > 10 | > 10 | > 10 | > 1000 | 4.91 | > 1000 | > 10 | > 10 | > 10 | > 10 | > 10 | 114 | > 5 | > 10 | > 20 |
| HCC38 (Breast Carcinoma) | > 10 | > 10 | 430 | > 1000 | 296 | > 10 | > 300 | > 1000 | > 2000 | > 1 | > 1000 | 69.5 | > 3000 | 503 | > 10000 | > 10 | > 10 | 80.4 | > 1000 | > 1000 | > 10 | > 10 | > 10 | > 1000 | > 10 | > 1000 | > 10 | > 10 | > 10 | > 10 | > 10 | 172 | > 5 | > 10 | > 20 |
